Active and inactive are the calls of the source. No cut-off for these calls is given here.
Legend:
MGC-803 [1] = assay: Effect on CDK2 expression in human MGC-803 cells at 0.5 to 1 uM by Western blot analysis; assay type: functional, cell-based; conditions: dose 0.5-1 µM
MGC-803 [2] = assay: Downregulation of cyclinE expression in human MGC-803 cells at 0.5 to 1 uM by Western blot analysis; assay type: functional, cell-based; conditions: dose 0.5-1 µM
MGC-803 [3] = assay: Induction of apoptosis in human MGC-803 cells assessed as early apoptotic cells at 1 uM after 24 hrs (reference value: 2.9%); assay type: functional
MGC-803 [4] = assay: Induction of cell cycle arrest in human MGC-803 cells assessed as accumulation of cells at G2 phase at 1 uM for 24 hrs (reference value: 17.61%); assay type: functional
MGC-803 [5] = assay: Induction of apoptosis in human MGC-803 cells assessed as late apoptotic cells at 1 uM after 24 hrs (reference value: 2.6%); assay type: functional
MGC-803 [6] = assay: Induction of apoptosis in human MGC-803 cells assessed as viable cells at 0.5 uM after 24 hrs (reference value: 93.6%); assay type: functional; conditions: read-out: Activity
MGC-803 [7] = assay: Induction of cell cycle arrest in human MGC-803 cells assessed as accumulation of cells at S phase at 0.5 uM for 24 hrs (Rvb =20.23%); assay type: functional
DNA [8] = assay: Binding affinity to Escherichia coli pBR322 DNA assessed as intercalation at 10 to 100 uM by agarose gel electrophoresis assay; assay type: nucleic-acid assay; conditions: dose 10-100 µM
MGC-803 [9] = assay: Induction of cell cycle arrest in human MGC-803 cells assessed as accumulation of cells at S phase at 1 uM for 24 hrs (Rvb =20.23%); assay type: functional
MGC-803 [10] = assay: Induction of apoptosis in human MGC-803 cells assessed as late apoptotic cells at 0.5 uM after 24 hrs (reference value: 2.6%); assay type: functional
MGC-803 [11] = assay: Induction of apoptosis in human MGC-803 cells assessed as late apoptotic cells at 2 uM after 24 hrs (reference value: 2.6%); assay type: functional
MGC-803 [12] = assay: Induction of apoptosis in human MGC-803 cells assessed as necrotic cells at 2 uM after 24 hrs (reference value: 0.9%); assay type: functional
MGC-803 [13] = assay: Upregulation of p21 expression in human MGC-803 cells at 0.5 to 1 uM by Western blot analysis; assay type: functional, cell-based; conditions: dose 0.5-1 µM
MGC-803 [14] = assay: Induction of apoptosis in human MGC-803 cells assessed as increase in caspase-3 expression at 0.5 to 1 uM by Western blot analysis; assay type: functional, cell-based; conditions: dose 0.5-1 µM
MGC-803 [15] = assay: Induction of apoptosis in human MGC-803 cells assessed as viable cells at 1 uM after 24 hrs (reference value: 93.6%); assay type: functional; conditions: read-out: Activity
MGC-803 [16] = assay: Induction of apoptosis in human MGC-803 cells assessed as necrotic cells at 1 uM after 24 hrs (reference value: 0.9%); assay type: functional
SK-OV-3 = assay: Antiproliferative activity against human SK-OV-3 cells by MTT assay; assay type: functional, cell-based
MGC-803 [17] = assay: Induction of cell cycle arrest in human MGC-803 cells assessed as accumulation of cells at G1 phase at 0.5 uM for 24 hrs (reference value: 62.6%); assay type: functional
[18] = molecular target: T1, DNA topoisomerase 1 (Homo sapiens) (UniProt P11387); assay: Inhibition of topoisomerase 1 (unknown origin) assessed as DNA relaxation using pBR322 DNA as substrate at < 20 uM by gel electrophoresis; conditions: dose microM <20
T1 sequence (whole entry): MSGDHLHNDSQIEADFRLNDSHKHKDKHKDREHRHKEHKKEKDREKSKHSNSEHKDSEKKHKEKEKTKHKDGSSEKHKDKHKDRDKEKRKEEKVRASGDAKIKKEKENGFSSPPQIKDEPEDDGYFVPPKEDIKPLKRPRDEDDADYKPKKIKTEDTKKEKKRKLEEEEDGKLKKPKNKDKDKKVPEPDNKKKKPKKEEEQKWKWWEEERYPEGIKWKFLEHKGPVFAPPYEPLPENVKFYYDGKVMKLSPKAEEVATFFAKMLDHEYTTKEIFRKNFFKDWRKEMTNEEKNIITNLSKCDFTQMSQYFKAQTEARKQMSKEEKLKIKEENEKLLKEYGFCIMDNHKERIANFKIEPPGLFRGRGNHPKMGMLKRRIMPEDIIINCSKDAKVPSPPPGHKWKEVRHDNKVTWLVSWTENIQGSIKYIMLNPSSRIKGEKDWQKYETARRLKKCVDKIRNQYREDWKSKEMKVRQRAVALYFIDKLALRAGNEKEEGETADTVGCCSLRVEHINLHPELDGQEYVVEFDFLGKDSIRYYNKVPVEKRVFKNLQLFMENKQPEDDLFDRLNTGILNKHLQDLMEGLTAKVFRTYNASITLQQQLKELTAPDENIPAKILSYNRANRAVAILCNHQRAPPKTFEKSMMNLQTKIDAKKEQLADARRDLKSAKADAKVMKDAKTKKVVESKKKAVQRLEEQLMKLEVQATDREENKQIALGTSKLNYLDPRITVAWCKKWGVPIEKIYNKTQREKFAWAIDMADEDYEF

MGC-803 [19] = assay: Induction of apoptosis in human MGC-803 cells assessed as increase in PARP expression at 0.5 to 1 uM by Western blot analysis; assay type: functional, cell-based; conditions: dose 0.5-1 µM
MGC-803 [20] = assay: Antitumor activity against human MGC-803 cells xenografted in BALB/c nude mice assessed as tumor increment rate at 15 mg/kg, ip measured after 21 days relative to control; assay type: functional; conditions: time 21 day
MGC-803 [21] = assay: Induction of apoptosis in human MGC-803 cells assessed as early apoptotic cells at 2 uM after 24 hrs (reference value: 2.9%); assay type: functional
DNA [22] = assay: Induction of DNA damage in human MGC-803 cells assessed as long DNA tails at 1 uM after 24 hrs by comet assay; assay type: cell-based
MGC-803 [23] = assay: Induction of apoptosis in human MGC-803 cells assessed as necrotic cells at 0.5 uM after 24 hrs (reference value: 0.9%); assay type: functional
MGC-803 [24] = assay: Antiproliferative activity against human MGC-803 cells by MTT assay; assay type: functional, cell-based
MGC-803 [25] = assay: Induction of cell cycle arrest in human MGC-803 cells assessed as accumulation of cells at G2 phase at 0.25 uM for 24 hrs (reference value: 17.61%); assay type: functional
MGC-803 [26] = assay: Induction of apoptosis in human MGC-803 cells assessed as increase in caspase-9 expression at 0.5 to 1 uM by Western blot analysis; assay type: functional, cell-based; conditions: dose 0.5-1 µM
MGC-803 [27] = assay: Antitumor activity against human MGC-803 cells xenografted in BALB/c nude mice assessed as tumor inhibitory rate at 5 mg/kg, ip measured after 21 days relative to control; assay type: functional; conditions: Mus musculus, MGC-803, ip, 504 h, time 21 day
MGC-803 [28] = assay: Antitumor activity against human MGC-803 cells xenografted in BALB/c nude mice assessed as tumor inhibitory rate at 15 mg/kg, ip measured after 21 days relative to control; assay type: functional; conditions: Mus musculus, MGC-803, ip, 504 h, time 21 day
SMMC-7721 = assay: Antiproliferative activity against human SMMC-7721 cells by MTT assay; assay type: functional, cell-based
MGC-803 [29] = assay: Induction of cell cycle arrest in human MGC-803 cells assessed as accumulation of cells at G2 phase at 0.5 uM for 24 hrs (reference value: 17.61%); assay type: functional
MGC-803 [30] = assay: Induction of apoptosis in human MGC-803 cells assessed as decrease in Bcl2 expression at 0.5 to 1 uM by Western blot analysis; assay type: functional, cell-based; conditions: dose 0.5-1 µM

Row | Activity (DNA [8]) | IC50 (SK-OV-3) [µM] | inhibition [18] | Compound | Activity (MGC-803 [1]) | inhibition (MGC-803 [2]) | Activity (MGC-803 [3]) [%] | Activity (MGC-803 [4]) [%] | Activity (MGC-803 [5]) [%] | viability at 0.5 µM (MGC-803 [6]) [%] | Activity (MGC-803 [7]) [%] | Activity (MGC-803 [9]) [%] | Activity (MGC-803 [10]) [%] | Activity (MGC-803 [11]) [%] | Activity (MGC-803 [12]) [%] | Activity (MGC-803 [13]) | Activity (MGC-803 [14]) | viability at 1 µM (MGC-803 [15]) [%] | Activity (MGC-803 [16]) [%] | Activity (MGC-803 [17]) [%] | Activity (MGC-803 [19]) | further results
1 | Active | 1.88 | Active | CN(C)CCN1C(=O)c2cccc3c(N4CCN(C(=O)c5ccccc5)CC4)c([N+](=O)[O-])cc(c23)C1=O | Active | Active | 17.5 | 0.92 | 11.2 | 74.9 | 69.18 | 71.16 | 11.6 | 20.5 | 5.6 | Active | Active | 66.5 | 4.7 | 27.88 | Active | T/C (MGC-803 [20]): 47.1%; Activity (MGC-803 [21]): 32%; Activity (DNA [22]): Active; Activity (MGC-803 [23]): 3.4%; IC50 (MGC-803 [24]): 0.87 µM; Activity (MGC-803 [25]): 11.29%; Activity (MGC-803 [26]): Active; inhibition in vivo at 5 mg/kg (MGC-803 [27]): 40.1%; inhibition in vivo at 15 mg/kg (MGC-803 [28]): 52.8%; IC50 (SMMC-7721): 1.57 µM; Activity (MGC-803 [29]): 3.14%; Activity (MGC-803 [30]): Active
2 | Active | 0.32 | Active | Cc1ccc(S(=O)(=O)N2CCN(c3c([N+](=O)[O-])cc4c5c(cccc35)C(=O)N(CCN(C)C)C4=O)CC2)cc1 | Active | Active | 13.1 | 0 | 9.8 | 78.5 | 43.96 | 75.18 | 7.6 | 10.2 | 6.2 | Active | Active | 72.9 | 4.2 | 55.85 | Active | T/C (MGC-803 [20]): 38.4%; Activity (MGC-803 [21]): 16.8%; Activity (DNA [22]): Active; Activity (MGC-803 [23]): 4.2%; IC50 (MGC-803 [24]): 1.42 µM; Activity (MGC-803 [25]): 5.83%; Activity (MGC-803 [26]): Active; inhibition in vivo at 5 mg/kg (MGC-803 [27]): 41.9%; inhibition in vivo at 15 mg/kg (MGC-803 [28]): 61.7%; IC50 (SMMC-7721): 2.71 µM; Activity (MGC-803 [29]): 0.19%; Activity (MGC-803 [30]): Active
